The text below walks through data of patent US9994886B2, “Modified Epstein-Barr virus DNA polymerase and methods for isothermal DNA amplification” (priority 2013, dated 2018).

As a reminder, the inhibition is the drop in the measured response relative to a control, in per cent.

For data set [1], the target named is T1, EBVpol (Epstein-Barr virus, UniProt P03198).
T1 construct: Ac-BALF5 baculovirus vector, an expression plasmid vector bearing the full-length BALF5 gene; made in house; host or cells: Sf9 insect cells, recombinant baculoviruses pAc-BALF5 and pAc-BMRF1
T1 sequence (P03191 whole entry): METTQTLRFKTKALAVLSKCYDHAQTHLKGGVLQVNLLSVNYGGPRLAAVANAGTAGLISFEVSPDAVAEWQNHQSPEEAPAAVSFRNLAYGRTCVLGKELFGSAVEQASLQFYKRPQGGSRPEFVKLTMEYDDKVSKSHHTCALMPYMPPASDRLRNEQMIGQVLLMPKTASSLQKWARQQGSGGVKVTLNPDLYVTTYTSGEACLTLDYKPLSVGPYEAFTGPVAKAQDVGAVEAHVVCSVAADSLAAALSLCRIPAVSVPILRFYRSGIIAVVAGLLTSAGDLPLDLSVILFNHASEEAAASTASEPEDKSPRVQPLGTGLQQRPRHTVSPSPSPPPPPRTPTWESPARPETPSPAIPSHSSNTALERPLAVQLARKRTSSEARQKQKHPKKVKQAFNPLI
T1 sequence (P03198 whole entry, added parts left off): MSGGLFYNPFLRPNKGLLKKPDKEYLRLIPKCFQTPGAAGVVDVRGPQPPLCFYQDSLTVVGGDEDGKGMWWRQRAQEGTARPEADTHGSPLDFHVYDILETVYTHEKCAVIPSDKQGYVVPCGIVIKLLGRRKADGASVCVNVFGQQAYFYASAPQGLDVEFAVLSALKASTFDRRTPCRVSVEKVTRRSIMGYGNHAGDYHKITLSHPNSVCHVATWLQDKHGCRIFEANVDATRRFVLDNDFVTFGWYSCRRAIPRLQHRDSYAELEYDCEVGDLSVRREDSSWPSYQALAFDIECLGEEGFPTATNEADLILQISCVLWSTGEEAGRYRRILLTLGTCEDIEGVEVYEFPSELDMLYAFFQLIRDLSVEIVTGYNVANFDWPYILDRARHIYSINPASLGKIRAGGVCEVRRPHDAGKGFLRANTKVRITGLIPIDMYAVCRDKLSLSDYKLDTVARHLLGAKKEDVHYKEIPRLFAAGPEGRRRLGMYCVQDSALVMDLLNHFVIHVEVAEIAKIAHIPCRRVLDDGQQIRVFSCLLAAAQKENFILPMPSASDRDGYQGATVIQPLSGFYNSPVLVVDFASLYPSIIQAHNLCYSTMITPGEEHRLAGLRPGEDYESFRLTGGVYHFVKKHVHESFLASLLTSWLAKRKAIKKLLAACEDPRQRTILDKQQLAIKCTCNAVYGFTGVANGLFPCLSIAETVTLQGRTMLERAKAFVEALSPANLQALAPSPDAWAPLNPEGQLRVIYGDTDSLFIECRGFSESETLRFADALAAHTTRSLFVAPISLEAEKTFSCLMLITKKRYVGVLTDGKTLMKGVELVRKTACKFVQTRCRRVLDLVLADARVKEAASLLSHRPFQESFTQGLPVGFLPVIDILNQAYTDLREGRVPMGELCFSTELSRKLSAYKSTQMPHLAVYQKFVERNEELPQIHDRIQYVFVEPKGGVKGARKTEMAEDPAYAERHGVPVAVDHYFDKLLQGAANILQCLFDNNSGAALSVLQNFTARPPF
In words: Inhibition of EBVpol activity at high salt. To be noted: 20 mM PAA. Type of data set: biochemical. The method, then:
(§1) When assayed in the presence of BMRF1, its activity on CT DNA at 100 mM ammonium sulfate was greater than 100-fold increased over its activity alone, in the absence of salt.

The test system of data set [2] is singly-primed M13mp18 single-stranded DNA circle. To be noted: cited from earlier work.
For data set [3] the following is noted: BALF5 combined with BMRF1; cited from earlier work.
The test system of data set [4] is oligo dG:poly dC. Put plainly: Activity on synthetic primer:template, GC preference. Type of data set: biochemical. An excerpt: EBVpol and the modified EBVpol of this invention have strong amplification activity on GC-rich regions of DNA sequences; EBV DNA polymerase has 29-fold greater activity on synthetic oligo dG:poly dC (primer:template) compared to oligo dA:poly dT. GC-rich DNA sequences are the most difficult-to-amplify DNA sequences. […] Thus, the GC-preference of EBVpol and its variants makes EBVpol and its variants preferred reagents for whole genome amplification (“WGA”).

Data set [5] concerns activated calf thymus (CT) DNA. In words: DNA polymerase elongation activity of purified BALF5 on activated calf thymus DNA. Type of data set: biochemical. The method, then: as §1
The target in data set [6] is T2, GST-BMRF1(1-303) (Epstein-Barr virus, UniProt P03191).
T2 construct: A GST fusion with BMRF1 residues 1-303 was constructed and expressed in E. coli BL21*DE3; made in house; host or cells: E. coli BL21*DE3
T2 sequence (P03191 1-303): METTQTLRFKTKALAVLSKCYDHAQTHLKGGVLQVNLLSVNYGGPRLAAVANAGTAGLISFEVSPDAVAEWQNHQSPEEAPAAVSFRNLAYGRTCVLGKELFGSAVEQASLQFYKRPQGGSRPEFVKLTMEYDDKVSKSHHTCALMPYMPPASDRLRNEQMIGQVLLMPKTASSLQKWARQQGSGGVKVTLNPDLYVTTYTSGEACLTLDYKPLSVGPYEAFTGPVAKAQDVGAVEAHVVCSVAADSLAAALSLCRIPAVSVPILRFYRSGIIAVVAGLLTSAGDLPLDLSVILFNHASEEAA
In words: Binding of radiolabeled BALF5-deletion polypeptides to GST-BMRF1(1-303). To be noted: 100 mM ammonium sulfate; [35S]-methionine labeled in vitro translated polypeptides. The method, then: (§2) To determine if the extreme carboxyl terminus of the EBV BALF5 subunit is necessary for functional interaction with BMRF1, a series of deletions of the BALF5 open reading frame was constructed in the pYES-X2 vector and [^35S]-methionine labeled polypeptides were expressed by in vitro transcription-translation as described (Kiehl, A. and D. I. Dorsky, J Virol, 1995, 69(3): p. 1669-77). These radiolabeled BALF5-deletion polypeptides were then assayed for binding to GST-BMRF1(1-303) in 100 mM ammonium sulfate. In vitro translated BALF5 bound to GST-BMRF1(1-303) but not to GST alone.

Data set [7] concerns the target T3, GST (Schistosoma japonicum, UniProt P08515).
T3 construct: made in house; host or cells: E. coli (bacterial extract)
Put plainly: Non-specific binding of in vitro translated BALF5 to GST. On the procedure: as §2
A GST fusion with BMRF1 residues 1-303 was constructed and expressed in E. coli BL21*DE3 as a soluble 58 kDa protein which bound specifically to glutathione-agarose. Glutathione agarose beads were incubated in bacterial extract containing either 27 kDa wild-type GST or 58 kDa GST-BMRF1 and extensively washed in PBS, or 50 mM Tris-HCl, pH 8.0 containing 0, 50, 100, 150, or 200 mM ammonium sulfate. The beads were then incubated in the same wash buffers in the presence of [^35S]-methionine labeled in vitro translated BALF5, and then the beads were washed extensively at the same salt concentrations as the incubations. The washed beads were boiled in SDS sample buffer and the eluted proteins were analyzed by SDS-PAGE/fluorography. […]

For data set [8], the system named is activated calf thymus DNA. In words: DNA polymerase assay, incorporation of [32P]-dCMP into trichloroacetic acid-precipitable material. Type of data set: biochemical. The following applies: 100 mM ammonium sulfate; polypeptides in equimolar ratios. The method, then: The activity of the bacterially-expressed purified BMRF1(1-303)(“ΔC303”) polypeptide was examined in a DNA polymerase assay which measured incorporation of [^32P]-α-dCMP into trichloroacetic acid-precipitable material using activated calf thymus DNA and [^32P]-α-dCTP as the substrates in the presence of 100 mM ammonium sulfate (Tsurumi, T., T. Daikoku, and Y. Nishiyama, J Virol, 1994, 68(5): p. 3354-63). The BALF5 catalytic DNA polymerase subunit was obtained by expression in insect cells from the Ac-BALF5 baculovirus and purified by phosphocellulose and heparin affinity chromatography. The polypeptides were assayed in equimolar ratios and the specific activity (micromoles of dCMP incorporation per milligram of protein per hour) is shown in Table 3.
The GST-BMRF1 (1-303) polypeptide was bound to glutathione-agarose as described previously and cleaved overnight with 1/50 (w/w) factor Xa (NEBioLabs, Ipswich, Mass.) in 1 mM CaCl2. The cleaved BMRF1 (1-303) was then purified on DNA-cellulose, eluting at 300-500 mM NaCl. SDS-PAGE analysis confirmed the size of the uncleaved GST-BMRF1 (1-303) and the purified cleaved BMRF1 (1-303). The purified BMRF1 (1-303) was then shown to stimulate purified baculovirus-expressed BALF5 in 100 mM ammonium sulfate (see Table 3).

The target in data set [9] is T4, GST-BMRF1 fusion (Epstein-Barr virus, UniProt P03191).
T4 construct: A GST fusion with BMRF1 residues 1-303 was constructed and expressed in E. coli BL21*DE3; made in house; host or cells: E. coli BL21*DE3
T4 sequence (P03191 1-303): T2 sequence (P03191 1-303)
In words: GST-BMRF1 fusion binding to BALF5 on glutathione agarose beads at varied salt. On the procedure: A GST fusion with BMRF1 residues 1-303 was constructed and expressed in E. coli BL21*DE3 as a soluble 58 kDa protein which bound specifically to glutathione-agarose. Glutathione agarose beads were incubated in bacterial extract containing either 27 kDa wild-type GST or 58 kDa GST-BMRF1 and extensively washed in PBS, or 50 mM Tris-HCl, pH 8.0 containing 0, 50, 100, 150, or 200 mM ammonium sulfate. The beads were then incubated in the same wash buffers in the presence of [^35S]-methionine labeled in vitro translated BALF5, and then the beads were washed extensively at the same salt concentrations as the incubations. The washed beads were boiled in SDS sample buffer and the eluted proteins were analyzed by SDS-PAGE/fluorography. Measures taken to avoid the copurification of nucleic acids included washing the column at 600 mM NaCl and application of DNase to the column. And SDS-PAGE analysis was used to monitor GST-BMRF1 (1-303). […] Non-specific binding of BALF5 to the 27 kDa GST was very weak and independent of salt concentration.

T3 sequence (P08515 whole entry): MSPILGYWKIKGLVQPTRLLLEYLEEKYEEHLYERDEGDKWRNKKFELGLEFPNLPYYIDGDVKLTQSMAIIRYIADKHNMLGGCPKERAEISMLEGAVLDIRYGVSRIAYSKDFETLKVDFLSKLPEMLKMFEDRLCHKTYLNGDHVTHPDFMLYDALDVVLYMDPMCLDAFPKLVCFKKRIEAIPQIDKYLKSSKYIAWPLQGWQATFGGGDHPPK

For `O=C(O)CP(=O)(O)O` [PAA, phosphonoacetic acid], the inhibition at 20000 µM in [1] was determined as 60%.

With “EBV DNA polymerase holoenzyme: 1:1 complex of BALF5 catalytic subunit and BMRF1 processivity factor”, in [2], the “strand-displacement activity (SDA)” value is “possesses signification SDA”. In addition, the rate of incorporation entry in [2] (singly-primed M13mp18 single-stranded DNA circle) was “approximately 7200 nucleotides in 10 minutes”. Besides, the “ionic strength optimum of processive primer-dependent DNA synthesis” value in data set [3] is recorded as 150 mM ammonium sulfate. Moreover, the “activity on oligo dG:poly dC compared to oligo dA:poly dT” value in data set [4] is given as 29 fold.

Turning to “BALF5: 116-kDa catalytic subunit of EBV DNA polymerase with intrinsic 3′-5′ exonuclease activity, SEQ ID NO. 8”, the “DNA polymerase elongation activity on activated CT DNA” value in data set [5] (100 mM ammonium sulfate, BALF5 alone) was “completely inactive”; in data set [5] (low ionic strength) it was “significant DNA polymerase elongation activity”. Further, the “increase of activity on CT DNA over its activity alone in the absence of salt” value in data set [5] (in the presence of BMRF1, 100 mM ammonium sulfate) is “greater than 100 fold”. Also, the “binding to GST-BMRF1(1-303)” value in data set [6] was “bound”. For the same molecule, the “binding to GST alone” value in data set [7] is on record as “very weak”. Also, in data set [8], the “Specific Activity” value is reported as 1.7 micromoles of dCMP incorporation per milligram of protein per hour. Also, the “binding to the GST-BMRF1 fusion” value in data set [9] (0 and 200 mM ammonium sulfate) was “bind poorly”; in [9] (PBS and 50-150 mM ammonium sulfate) it was “bound efficiently”.

B1: ΔC303: BMRF1 with deletion of the C-terminal 101 amino acids (residues 1-303) (protein)
chain: T2 sequence (P03191 1-303)
As for B1, the “Specific Activity” value in data set [8] was 0.2 micromoles of dCMP incorporation per milligram of protein per hour.
